Results on 59 sequences are retold here after the OligoGym collection.

These antisense oligonucleotides have a phosphorothioate backbone; sugars and methylation of C are not fully specified.
Note: test concentration or dose not given here.

One series concerns the target MAP3K5. As to conditions: ASO.
The sequence GGATGGTGCAGAAGCCCGAG came in with a remaining target (mRNA or protein) (fraction of control) of 0.5. Still for that read-out and setting: the value for CTTGAGGTACCATGCTGGTG was 0.36; that for CGCTGCCCGGCGGCGGCTCG was 0.78; that for CATCAACAAGCAAGTCGTTA was 0.37. On the same count and under the same terms, the same measure for TGAGCAACAGTCAAGTCTGT: 0.56. On the same count and under the same terms, the same measure for TCTGCTTTCAGTGTCCGTGA: 0.21; for CCTCCGTGCTCATCTCTCCG: 0.09; for CAGTAACATCTGTCTTTGTG: 0.62. On to GCCGGCTGACAAGTCGGCTC, for which the remaining target (mRNA or protein) (fraction of control) stood at 0.43.

For TTCTAAAGTCTCTACCAGCT, the remaining target (mRNA or protein) (fraction of control) turned out to be 0.24. On the same count and under the same terms, the same measure for ATGTTGTTGGCCATGCTGAA: 0.31; for ACCGGCTTATAGTGTCTTCA: 0.73; for TCTCTCCGGGCCGGGCAGCA: ≥ 1. TCTAATGTTCAGGATTATTT: the remaining target (mRNA or protein) (fraction of control) was ≥ 1. On the same count and under the same terms, the value for CTCTGTCACCATTTTCATCA was 0.41. CCAGAAGCTGCCCGGCGGCG came in with a remaining target (mRNA or protein) (fraction of control) of 0.56.

As to GAACTATCTGATTGTCATGG, the remaining target (mRNA or protein) (fraction of control) was 0.83. The same measure, in the same setting: the value for GCACGATCACATGAATGTTA was 0.58; that for CGTGCTCATCTCTCCGGGCC was 0.12. Still for that read-out and setting: the same measure for GGCCTCGCTCTCGGCCACCA: 0.03. On the same count and under the same terms, the same measure for CGTCCGCCTCCGTGCTCATC: 0.12; for CAAATTCTCTGAGGCTTGCA: 0.54.

A further series deals with MAP2K2. As to conditions: ASO.
GTGCATGATCTGGTGCTT had a remaining target (mRNA or protein) (fraction of control) of 0.24. Same read-out and setting: the same measure for AACACACCGTTGGGCAGC: 0.13; for CCGTTGCCCGCGCCCAGC: 0.24; for TGGTTTGTGAGCATCTTC: 0.29. Same read-out and setting: the value for TTTCGAAGTCATCGTCTT was 0.56; that for CTTCTGCTGCTCGTCAAG was 0.65; that for GGTTCTTGATGAGGCATT was 0.31. CGGTCGGTCGGCTCGAAT had a remaining target (mRNA or protein) (fraction of control) of 0.8. On the same count and under the same terms, the value for CGTTCACAATATAGTCCA was 0.4; that for GGTGCTCTCCGCAGGGTG was 0.2.

On to CTTCCTCCGGGCCAGCAT, for which the remaining target (mRNA or protein) (fraction of control) was found to be 0.37. The same measure, in the same setting: the same measure for CGTGCCCACGAAGGAGTT: 0.26; for CACTTCTTCCACCTCGGA: 0.31. On the same count and under the same terms, the value for TCCACCAGGTTTGCCTCG was 0.14; that for GTTTTGTTTTGTAACCTA was 0.72; that for TTGGCTTTCTGGGTGAGA was 0.83. Same read-out and setting: the value for GTGCCCTGCAACCGCTCC was 0.14; that for AGCGTCGCCCGTCCCCAG was 0.15.

The sequence GTTCACGAGGATGTTGGA displayed a remaining target (mRNA or protein) (fraction of control) of 0.82. As to CTGTGCTGGACTTTGGTG, the remaining target (mRNA or protein) (fraction of control) is 0.42.

CAGATGTCCGACTGCACC gave a remaining target (mRNA or protein) (fraction of control) of 0.32. Turning to TGTGTTCCATGCAAATGC, the remaining target (mRNA or protein) (fraction of control) turned out to be 0.75. On the same count and under the same terms, the same measure for CTCCTTCTTCCCCGTCGA: 0.4. TACCTTCCGACGGCCAGC came in with a remaining target (mRNA or protein) (fraction of control) of 0.18.

GAGGTACGCCAAGCCCCG showed a remaining target (mRNA or protein) (fraction of control) of 0.11. Still for that read-out and setting: the same measure for GATGTACGGCGAGTTGCA: 0.81; for AGCTTCCTGGCCATGATG: 0.36. The same measure, in the same setting: the value for GTCACTGTAGAAGGCCCC was 0.38; that for GGTAGGGTTGATGGTGAG was 0.56; that for ATCTCAAGGTGGATCAGC was 0.71. Same read-out and setting: the value for TCATCGTCTTTGAGTTCG was 0.45; that for GTGTCCTCAGCTGGAAGG was 0.61. Sequence TCCATCCCGTGACCGCTG gave a remaining target (mRNA or protein) (fraction of control) of 0.18. Same read-out and setting: the value for TCTTTCAGCACCTGGTCC was 0.48. The same measure, in the same setting: the same measure for TAACCTAAGGAAGCAGAG: 0.33. Still for that read-out and setting: the same measure for TCTCCTCGGGAATCCTCT: 0.43; for ACGCAGGGAGCCCGGCCA: 0.29.
